Usually MIC stands for the lowest concentration found to suppress growth. Lower therefore signals a more susceptible organism.

This is an account of results in ChEMBL document CHEMBL1671624, “Efficacy of quinoxaline-2-carboxylate 1,4-di-N-oxide derivatives in experimental tuberculosis” (Antimicrob Agents Chemother, 2008).

Holding throughout (format): functional
The subject of test [1] is Mycobacterium tuberculosis. Description: Antibacterial activity against rifampin-resistant Mycobacterium tuberculosis by microplate Alamar Blue assay. On the technique in general: Resazurin is reduced to fluorescent resorufin, in cell work by metabolically active cells.
The test system of test [2] is Mycobacterium tuberculosis. Kind of test: Antibacterial activity against thiacetazone-resistant Mycobacterium tuberculosis by microplate Alamar Blue assay.
The test system of test [3] is Mycobacterium tuberculosis. Kind of test: Antibacterial activity against ethionamide-resistant Mycobacterium tuberculosis by microplate Alamar Blue assay.
For test [4], the system named is Mycobacterium tuberculosis. Description: Antibacterial activity against ciprofloxacin-resistant Mycobacterium tuberculosis by microplate Alamar Blue assay.
Test [5] deals with Mycobacterium tuberculosis. Description: Antibacterial activity against isoniazid-resistant Mycobacterium tuberculosis by microplate Alamar Blue assay.
Test [6] relates to Mycobacterium tuberculosis. Description: Antibacterial activity against ethambutol-resistant Mycobacterium tuberculosis by microplate Alamar Blue assay.
Test [7] relates to Mycobacterium tuberculosis. Description: Antibacterial activity against kanamycin-resistant Mycobacterium tuberculosis by microplate Alamar Blue assay.

In brackets after ≈: the same amount, converted by molar mass.

For `Cc1ccc2c(c1)[n+]([O-])c(C(=O)OCc1ccccc1)c(C)[n+]2[O-]`, the minimum inhibitory concentration (MIC) in test [1] turned out to be 0.39 µg/mL (≈ 1.2 µM); in test [2] it was 0.39 µg/mL (≈ 1.2 µM); in test [3] it was 1.56 µg/mL (≈ 4.81 µM); in test [4], 0.39 µg/mL (≈ 1.2 µM).
For `Cc1c(C(=O)OCc2ccccc2)[n+]([O-])c2cc(Cl)c(Cl)cc2[n+]1[O-]`, the MIC was 0.39 µg/mL (≈ 1.03 µM) in test [1]; 0.78 µg/mL (≈ 2.06 µM) in test [2]; 1.56 µg/mL (≈ 4.11 µM) in test [5]; 0.78 µg/mL (≈ 2.06 µM) in test [6]; 0.78 µg/mL (≈ 2.06 µM) in test [3]; 0.39 µg/mL (≈ 1.03 µM) in test [7]. This compound also returned an MIC in test [4] of 0.39 µg/mL (≈ 1.03 µM).
Consider `CCOC(=O)c1c(C)[n+]([O-])c2ccc(C)cc2[n+]1[O-]`, for which the minimal inhibitory concentration (MIC) came to 3.13 µg/mL (≈ 11.9 µM) in test [1], 0.39 µg/mL (≈ 1.49 µM) in test [2], 6.25 µg/mL (≈ 23.8 µM) in test [3] and 6.25 µg/mL (≈ 23.8 µM) in test [4].
Take `CCOC(=O)c1c(C)[n+]([O-])c2cc(C)c(C)cc2[n+]1[O-]`: the MIC in test [1] is at most 3.13 µg/mL; in test [2], at most 3.13 µg/mL; in test [5], 6.25 µg/mL (≈ 22.6 µM); in test [6], at most 3.13 µg/mL; in test [3], 6.25 µg/mL (≈ 22.6 µM); in test [7] it was at most 3.13 µg/mL. In test [4], this compound registered an MIC of 12.5 µg/mL (≈ 45.2 µM).
Take `COC(=O)c1c(C)[n+]([O-])c2cc(C)c(C)cc2[n+]1[O-]`: the minimum inhibitory concentration (MIC) in test [1] was 3.13 µg/mL (≈ 11.9 µM); in test [2], at most 1.56 µg/mL; in test [5] it was 3.13 µg/mL (≈ 11.9 µM); in test [6], at most 1.56 µg/mL; in test [3], 3.13 µg/mL (≈ 11.9 µM); in test [7] it was 3.13 µg/mL (≈ 11.9 µM). This compound also came in with an MIC in test [4] of 3.13 µg/mL (≈ 11.9 µM).
Take `COCCOC(=O)c1c(C)[n+]([O-])c2cc(Cl)c(Cl)cc2[n+]1[O-]`: the MIC in test [1] is at most 0.2 µg/mL; in test [2], 0.39 µg/mL (≈ 1.12 µM); in test [5], at most 0.2 µg/mL; in test [3], 0.78 µg/mL (≈ 2.25 µM); in test [4], 0.39 µg/mL (≈ 1.12 µM).
For the compound `COC(=O)c1c(C)[n+]([O-])c2ccc(C)cc2[n+]1[O-]`, the minimum inhibitory concentration (MIC) in test [1] came out at 3.13 µg/mL (≈ 12.6 µM); in test [2], 1.56 µg/mL (≈ 6.28 µM); in test [5], 6.25 µg/mL (≈ 25.2 µM); in test [6], 25 µg/mL (≈ 101 µM); in test [3], 3.13 µg/mL (≈ 12.6 µM); in test [7], 25 µg/mL (≈ 101 µM). This compound had an MIC in test [4] of 6.25 µg/mL (≈ 25.2 µM).
Consider `CCOC(=O)c1c(C)[n+]([O-])c2ccc(Cl)cc2[n+]1[O-]`, for which the MIC was 0.39 µg/mL (≈ 1.38 µM) in test [1]; 0.39 µg/mL (≈ 1.38 µM) in test [5]; 0.39 µg/mL (≈ 1.38 µM) in test [6]; 0.39 µg/mL (≈ 1.38 µM) in test [7]; 0.78 µg/mL (≈ 2.76 µM) in test [4].
As for `Cc1c(C(=O)OCc2ccccc2)[n+]([O-])c2ccccc2[n+]1[O-]`, the MIC in test [1] is 0.2 µg/mL (≈ 0.645 µM); in test [2], 0.2 µg/mL (≈ 0.645 µM); in test [5] it was 0.2 µg/mL (≈ 0.645 µM); in test [3], 0.4 µg/mL (≈ 1.29 µM); in test [4] it was 0.1 µg/mL (≈ 0.322 µM).
As for `CCOC(=O)c1c(C)[n+]([O-])c2cc(Cl)c(Cl)cc2[n+]1[O-]`, the MIC in test [1] is 0.2 µg/mL (≈ 0.631 µM); in test [5], 0.39 µg/mL (≈ 1.23 µM); in test [6], 0.2 µg/mL (≈ 0.631 µM); in test [7] it was at most 0.1 µg/mL; in test [4], 0.2 µg/mL (≈ 0.631 µM).
With `CCOC(=O)c1c(C)[n+]([O-])c2ccccc2[n+]1[O-]`, the MIC in test [1] stood at 1.56 µg/mL (≈ 6.28 µM); in test [5], 1.56 µg/mL (≈ 6.28 µM); in test [7], 1.56 µg/mL (≈ 6.28 µM); in test [4], 3.13 µg/mL (≈ 12.6 µM).
